Like-named read-outs stand apart in the source and are kept apart here.

Series [1] concerns GSK3β-HiBiT KI HEK293 cells. Kind of series: Multiplexed degradation and cell viability assay (Gly-Phe-AFC fluorescence). In kind it is cell-based, human. Particulars: up to 24 h and 1 μM (10 nM, 100 nM, 1 µM; 2, 4, 24 h). How it is done: For viability tests, GSK3β-HiBiT KI HEK293 cells were seeded onto white-opaque 96-well plates at a density of 2 × 10^4 cells per well. After 16 h, cells were treated with test compounds or DMSO with indicated concentrations for 2, 4 and 24 h. Thirty minutes before the end of treatment, 20 µL of reaction buffer containing Gly-Phe-A FC substrate (1:200 in cell culture media, Chem Cruz, sc506265) added to the each well and cells were returned to cell culture incubator. At the end of the treatment time, HiBiT lytic reagents were prepared according to the manufacturer's instructions (Promega) and 120 µL of reagent dispensed to each well. Fluorescence (viability) and luminescence (degradation) signals were measured by GloMAX discover plate reader (Promega) at the same time. Obtained data analysed using Excel and GraphPad Prism (v10.1.2) as previously described above.

Series [2] is described as follows: Discrete i.v./p.o. KH1 (24) PK study and brain penetration. Type of series: in vivo, female Balb/c mice. The source says:
Fifteen female mice of the Balb/c strain were obtained from Charles River Laboratories, UK. Animals were maintained under a 12-h light/12-h dark cycle, in Thoren mouse caging containing EC0 aspen bedding (DBM, UK), with 'Sizzlenest' and 'Rodent Rolls' nesting material (DBM). Enrichment materials included aspen chew sticks, cardboard houses, tunnels, swings, and sunflower seeds. All animals had ad libitum access to food (5LF2 Extruded Diet, IPS Ltd, UK) and tap water throughout. Temperature and relative humidity were maintained between 19 °C–24 °C and 45%–65%, respectively. All animals received a minimum of 10 days of acclimatisation prior to the start of the study.
The intravenous formulations for KH1 (24) were prepared by dissolving the compound in DMSO. This was then diluted with PEG400, followed by dropwise addition of sterile water to form a complete solution. The resulting formulations consisted of 5% DMSO, 40% PEG400, and 55% water, and contained KH1 (24) at a concentration of 0.1 mg/mL (for the PK study), or 1.0 mg/mL (for the PK/PD study), respectively.
The oral formulation for KH1 (24) was produced by vigorously mixing the compound with a sterile solution containing 0.5% hydroxypropylmethylcellulose in water, until a fine homogenous suspension was formed. The resulting formulation contained KH1 (24) at a concentration of 0.6 mg/mL. Dose formulations were prepared on the day of dosing, and animals were observed regularly after dose administration.
[…] Serial blood samples (10 µL per sample) were collected from the lateral tail vein of three intravenously-dosed mice and three orally-dosed mice at 5, 15 and 30 min, 1, 2, 4, 6, 8, and 24 h after dose administration. Blood samples were diluted into 90 µL of Milli‑Q ultrapure water. The remaining three intravenously-dosed animals were placed under terminal anaesthesia with isoflurane, 2 h after bolus administration. Blood was collected via cardiac puncture and the brains were removed. Two aliquots of 10 µL blood were each diluted into 90 µL of Milli-Q ultrapure water. All blood samples were stored at −20 °C prior to bioanalysis. The concentration of KH1 (24) in blood and brain was determined by UPLC-MS/MS.
Blood samples (10 µL) from study mice were diluted 1× with 90 µL of water immediately when the sample was taken. All calibration, quality control, blanks and double blank samples (all 100 µL volume) were mixed (vortexed) with 300 µL of LCMS grade acetonitrile to precipitate proteins.
For study samples, a volume (30 µL) was mixed (vortexed) with a volume (90 µL) of acetonitrile to precipitate proteins. After protein precipitation, all samples were centrifuged to pellet the proteins. Study samples in Micronics tubes were centrifuged using a Beckman Coutler Allegra C-12R Centrifuge for 10 min at 3750 rpm. All other samples in Eppendorf tubes were centrifuged using a Sigma SciQuip 1–14 centrifuge for 10 min (14,800 rpm/16,163 × g). Supernatant from study samples (80 µL) and calibration samples, QCs, blanks, and double blanks (200 µL) were then transferred to HPLC glass vials containing Milli-Q water (40 µL or 100 µL, respectively), ready for LCMS analysis.

Where [3] appears, read: female, Balb/c, mouse, whole blood, Oral, 3 mg/kg.

For `Cn1nc(N2CCC(=O)NC2=O)c2ccc(CN3CCN(Cc4ccc(-c5cn(-c6ccc(-c7cn8nccc(C(=O)Nc9cnccc9N9CCOCC9)c8n7)cc6)nn5)nc4)CC3)cc21` [compound 24], in series [1], the “impact on cell viability” value is “no impact on cell viability”. Besides, the Half_Life in series [2] (IV, 0.37 mg/kg) stood at 2.3 h. Moreover, the Vss_obs in series [2] (IV, 0.37 mg/kg) was found to be 2.0 L/kg. Further, the concentration at 2 h was 0.02 nM in series [2] (female, Balb/c, mouse, brain (unbound), intravenous, 0.37 mg/kg, predicted from brain concentration and measured free fraction, read-out: free concentration in brain); 16 nM in series [2] (female, Balb/c, mouse, brain, intravenous, 0.37 mg/kg i.v., 2 hours, read-out: Mean Brain Concentration); 0.4 to 0.9 nM in series [2] (female, Balb/c, mouse, plasma (unbound), intravenous, 2 h, 0.37 mg/kg, using predicted free fractions, read-out: unbound total plasma concentration); 88 nM in series [2] (female, Balb/c, mouse, whole blood, intravenous, 0.37 mg/kg i.v., 2 hours, read-out: Mean Blood Concentration). The Kp uu at 2 h in series [2] (female, Balb/c, mouse, brain / plasma (unbound), iv, 0.37 mg/kg i.v., 2 h, read-out: estimated Kp,uu) was 0.05. The Kp at 2 h in series [2] (female, Balb/c, mouse, brain / whole blood, intravenous, 0.37 mg/kg i.v., 2 hours, read-out: Brain:Blood Ratio) came out at 0.18. For the same molecule, the AUC(0-t) was 572 ng·h/mL in series [2] (female, Balb/c, mouse, whole blood, iv, 0.37 mg/kg) and 82.2 ng·h/mL in series [2] (setting [3]). Further, the clearance in series [2] (female, Balb/c, mouse, whole blood, iv, 0.37 mg/kg, read-out: Cl_obs) was determined as 10 mL/min/kg. The same molecule displayed a Cmax in series [2] (setting [3]) of 19 ng/mL. For the same molecule, the Tmax in series [2] (setting [3]) is 2 h. The bioavailability in series [2] (female, Balb/c, mouse, whole blood, Oral, 3 mg/kg, read-out: F (oral bioavailability)) came to 1.6%. Further, in series [2] (for up to 4 h following i.v. dosing at 0.37 mg/kg), the “total mean plasma concentration” value is on record as “above 65 nM”.

By AUC(0-t) is commonly meant exposure summed from dosing to a finite time, without extrapolation to infinity. High values mean high exposure, low ones low exposure. What is called Cmax is the maximum level reached in the sampled fluid or tissue. Usually Tmax stands for the time at which the peak concentration occurs. The term bioavailability denotes the share of a dose that reaches the circulation, judged against a reference dose that is usually intravenous.
